Measured values reported in EP4806891A1 (Kangbaida (Sichuan) Biotechnology Co., Ltd., priority 2023, dated 2025).
pIC50: −log10 of the molar value.

target: T1, HEK-Blue-hTLR7 cells (Homo sapiens, UniProt Q9NYK1); experiment: HEK-Blue-hTLR7 cell inhibition assay; format: cell-based; details: R848 0.8 µM, 16 h, OD 620 nm, read-out: TLR7 IC50
T1 construct: expressed in transfected cells; host or cells: HEK-Blue-hTLR7 cells (HEK293-derived reporter line)
T1 sequence (Q9NYK1 27-1049): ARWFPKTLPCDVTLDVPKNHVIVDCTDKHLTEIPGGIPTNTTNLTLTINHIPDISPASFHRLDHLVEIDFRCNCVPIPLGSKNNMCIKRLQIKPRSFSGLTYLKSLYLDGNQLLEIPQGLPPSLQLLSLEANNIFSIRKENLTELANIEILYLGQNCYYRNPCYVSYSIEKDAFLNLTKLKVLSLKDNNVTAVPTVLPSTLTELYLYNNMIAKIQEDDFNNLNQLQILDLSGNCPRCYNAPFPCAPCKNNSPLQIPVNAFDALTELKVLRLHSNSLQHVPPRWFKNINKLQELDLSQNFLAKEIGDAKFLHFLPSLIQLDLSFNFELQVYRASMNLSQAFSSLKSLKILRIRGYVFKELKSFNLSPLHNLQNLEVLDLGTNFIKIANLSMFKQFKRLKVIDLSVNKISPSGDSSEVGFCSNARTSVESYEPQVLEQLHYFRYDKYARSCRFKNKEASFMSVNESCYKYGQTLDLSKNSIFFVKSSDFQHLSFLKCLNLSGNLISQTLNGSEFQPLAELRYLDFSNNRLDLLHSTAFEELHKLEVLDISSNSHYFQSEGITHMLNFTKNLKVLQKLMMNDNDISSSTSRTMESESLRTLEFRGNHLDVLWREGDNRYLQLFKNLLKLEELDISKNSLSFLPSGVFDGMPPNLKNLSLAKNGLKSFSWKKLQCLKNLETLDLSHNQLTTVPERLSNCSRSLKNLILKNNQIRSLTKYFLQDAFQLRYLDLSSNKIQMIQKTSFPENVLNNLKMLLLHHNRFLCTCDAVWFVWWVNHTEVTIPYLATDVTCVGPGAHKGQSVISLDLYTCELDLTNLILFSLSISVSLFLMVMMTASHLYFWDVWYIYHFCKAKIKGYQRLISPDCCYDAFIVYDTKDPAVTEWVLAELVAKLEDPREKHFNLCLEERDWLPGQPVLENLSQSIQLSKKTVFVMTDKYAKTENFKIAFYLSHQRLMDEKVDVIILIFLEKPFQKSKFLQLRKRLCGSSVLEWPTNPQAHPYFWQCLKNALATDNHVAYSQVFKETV
Method in brief: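 Cells were pre-incubated 4 h, then co-treated 16 h at 37 °C with compound (10 doses, 0.5–10000 nM final) plus R848 (0.8 µM for TLR7, 3 µM for TLR8) or ODN2006 (1 µM, TLR9). Reporter OD620 gave inhibition relative to DMSO blank and agonist-only controls; IC50 came from curve fitting.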

Compound | pIC50
CN(C)[C@H]1CC[C@H](c2nnc([C@]34CN(c5ccc(C#N)c6ncccc56)C[C@@]3(C(F)(F)F)C4)o2)CC1 [Compound 21, 5-((1S,5R)-1-(5-((1R,4S)-4-(dimethylamino)cyclohexyl)-1,3,4-oxadiazol-2-yl)-5-(trifluoromethyl)-3-azabicyclo[3.1.0]hexan-3-yl)quinoline-8-carbonitrile] | > 7.00
N#Cc1ccc(N2C[C@]3(c4nnc(C5=CCNC5)o4)C[C@]3(C(F)(F)F)C2)c2cccnc12 [Compound 22, 5-((1S,5R)-1-(5-(2,5-dihydro-1H-pyrrol-3-yl)-1,3,4-oxadiazol-2-yl)-5-(trifluoromethyl)-3-azabicyclo[3.1.0]hexan-3-yl)quinoline-8-carbonitrile] | > 7.00
CN1CCC(n2cnc([C@]34CN(c5ccc(C#N)c6ncccc56)C[C@@]3(C(F)(F)F)C4)n2)CC1 [Compound 23, 5-((1S,5R)-1-(1-(1-methylpiperidin-4-yl)-1H-1,2,4-triazol-3-yl)-5-(trifluoromethyl)-3-azabicyclo[3.1.0]hexan-3-yl)quinoline-8-carbonitrile] | > 7.00
N#Cc1ccc(N2C[C@]3(c4nnc(C#CCN5CCOCC5)o4)C[C@]3(C(F)(F)F)C2)c2cccnc12 [Compound 24, 5-((1S,5R)-1-(5-(3-morpholinoprop-1-yn-1-yl)-1,3,4-oxadiazol-2-yl)-5-(trifluoromethyl)-3-azabicyclo[3.1.0]hexan-3-yl)quinoline-8-carbonitrile] | > 6.00
CN(C)CC#Cc1nnc([C@]23CN(c4ccc(C#N)c5ncccc45)C[C@@]2(C(F)(F)F)C3)o1 [Compound 25, 5-((1S,5R)-1-(5-(3-(dimethylamino)prop-1-yn-1-yl)-1,3,4-oxadiazol-2-yl)-5-(trifluoromethyl)-3-azabicyclo[3.1.0]hexan-3-yl)quinoline-8-carbonitrile] | > 7.00
CC1(C)CC(Cc2nnc([C@]34CN(c5ccc(C#N)c6ncccc56)C[C@@]3(C(F)(F)F)C4)o2)CC(C)(C)N1 [Compound 26, 5-((1S,5R)-1-(5-((2,2,6,6-tetramethylpiperidin-4-yl)methyl)-1,3,4-oxadiazol-2-yl)-5-(trifluoromethyl)-3-azabicyclo[3.1.0]hexan-3-yl)quinoline-8-carbonitrile] | > 7.00
N#Cc1ccc(N2C[C@]3(c4nnc(N5CCOCC5)o4)C[C@]3(C(F)(F)F)C2)c2cccnc12 [Compound 27, 5-((1S,5R)-1-(5-morpholino-1,3,4-oxadiazol-2-yl)-5-(trifluoromethyl)-3-azabicyclo[3.1.0]hexan-3-yl)quinoline-8-carbonitrile] | > 7.00
CN1CC(Cc2nnc([C@]34CN(c5ccc(C#N)n6ncc(F)c56)C[C@@]3(C(F)(F)F)C4)o2)C1 [Compound 30, 3-fluoro-4-((1S,5R)-1-(5-((1-methylazetidin-3-yl)methyl)-1,3,4-oxadiazol-2-yl)-5-(trifluoromethyl)-3-azabicyclo[3.1.0]hexan-3-yl)pyrazolo[1,5-a]pyridine-7-carbonitrile] | > 7.00
CN1CCC(Oc2nnc([C@]34CN(c5ccc(C#N)n6ncc(F)c56)C[C@@]3(C(F)(F)F)C4)o2)CC1 [Compound 31, 3-fluoro-4-((1S,5R)-1-(5-((1-methylpiperidin-4-yl)oxy)-1,3,4-oxadiazol-2-yl)-5-(trifluoromethyl)-3-azabicyclo[3.1.0]hexan-3-yl)pyrazolo[1,5-a]pyridine-7-carbonitrile] | > 7.00
N#Cc1ccc(N2C[C@]3(c4nnc(C5(F)CNC5)o4)C[C@]3(C(F)(F)F)C2)c2cccnc12 [Compound 32, 5-((1S,5R)-1-(5-(3-Fluoroazetidin-3-yl)-1,3,4-oxadiazol-2-yl)-5-(trifluoromethyl)-3-azabicyclo[3.1.0]hexan-3-yl)quinoline-8-carbonitrile] | > 7.00
N#Cc1ccc(N2C[C@]3(c4nnc(C5CCNCC5F)o4)C[C@]3(C(F)(F)F)C2)c2cccnc12 (stereo partly drawn) [Compound 33] | > 7.00
CN1CCC(c2nnc([C@]34CN(c5ccc(C#N)c6ncccc56)C[C@@]3(C(F)(F)F)C4)o2)CC1=O (stereo partly drawn) [Compound 34] | > 7.00
N#Cc1ccc(N2C[C@]3(c4nnc(CC5CNC5)o4)C[C@]3(C(F)(F)F)C2)c2cccnc12 [Compound 35, 5-((1S,5R)-1-(5-(azetidin-3-ylmethyl)-1,3,4-oxadiazol-2-yl)-5-(trifluoromethyl)-3-azabicyclo[3.1.0]hexan-3-yl)quinoline-8-carbonitrile] | > 6.00
CN1CC(Cc2nnc([C@]34CN(c5ccc(C#N)c6ncccc56)C[C@@]3(C(F)(F)F)C4)o2)C1 [Compound 36, 5-((1S,5R)-1-(5-((1-methylazetidin-3-yl)methyl)-1,3,4-oxadiazol-2-yl)-5-(trifluoromethyl)-3-azabicyclo[3.1.0]hexan-3-yl)quinoline-8-carbonitrile] | > 7.00
CN1CCC(Cc2nnc([C@]34CN(c5ccc(C#N)c6ncccc56)C[C@@]3(C(F)(F)F)C4)o2)CC1 [Compound 37, 5-((1S,5R)-1-(5-((1-methylpiperidin-4-yl)methyl)-1,3,4-oxadiazol-2-yl)-5-(trifluoromethyl)-3-azabicyclo[3.1.0]hexan-3-yl)quinoline-8-carbonitrile] | > 7.00
CN1CCC(Cc2nnc([C@]34CN(c5ccc(C#N)c6ncccc56)C[C@@]3(C(F)(F)F)C4)n2C)CC1 [Compound 38, 5-((1S,5R)-1-(4-methyl-5-((1-methylpiperidin-4-yl)methyl)-4H-1,2,4-triazol-3-yl)-5-(trifluoromethyl)-3-azabicyclo[3.1.0]hexan-3-yl)quinoline-8-carbonitrile] | > 6.00
CN1CC(c2nnc([C@]34CN(c5ccc(C#N)c6ncccc56)C[C@@]3(C(F)(F)F)C4)o2)C1 [Compound 39, 5-((1S,5R)-1-(5-(1-methylazetidin-3-yl)-1,3,4-oxadiazol-2-yl)-5-(trifluoromethyl)-3-azabicyclo[3.1.0]hexan-3-yl)quinoline-8-carbonitrile] | > 7.00
N#Cc1ccc(N2C[C@]3(c4nnc(CN5CCOCC5)o4)C[C@]3(C(F)(F)F)C2)c2cccnc12 [Compound 40, 5-((1S,5R)-1-(5-(morpholinomethyl)-1,3,4-oxadiazol-2-yl)-5-(trifluoromethyl)-3-azabicyclo[3.1.0]hexan-3-yl)quinoline-8-carbonitrile] | > 6.00
N#Cc1ccc(N2C[C@]3(c4nnc(CN5CCCC5)o4)C[C@]3(C(F)(F)F)C2)c2cccnc12 [Compound 41, 5-((1S,5R)-1-(5-(Pyrrolidin-1-ylmethyl)-1,3,4-oxadiazol-2-yl)-5-(trifluoromethyl)-3-azabicyclo[3.1.0]hexan-3-yl)quinoline-8-carbonitrile] | > 7.00
CN(C)Cc1nnc([C@]23CN(c4ccc(C#N)c5ncccc45)C[C@@]2(C(F)(F)F)C3)o1 [Compound 42, 5-((1S,5R)-1-(5-((dimethylamino)methyl)-1,3,4-oxadiazol-2-yl)-5-(trifluoromethyl)-3-azabicyclo[3.1.0]hexan-3-yl)quinoline-8-carbonitrile] | > 7.00
N#Cc1ccc(N2C[C@]3(c4nnc(CCN5CCOCC5)o4)C[C@]3(C(F)(F)F)C2)c2cccnc12 [Compound 43, 5-((1S,5R)-1-(5-(morpholinoethyl)-1,3,4-oxadiazol-2-yl)-5-(trifluoromethyl)-3-azabicyclo[3.1.0]hexan-3-yl)quinoline-8-carbonitrile] | > 6.00
Cn1c(CN2CCCC2)nnc1[C@]12CN(c3ccc(C#N)c4ncccc34)C[C@@]1(C(F)(F)F)C2 [Compound 44, 5-((1S,5R)-1-(4-methyl-5-(pyrrolidin-1-ylmethyl)-4H-1,2,4-triazol-3-yl)-5-(trifluoromethyl)-3-azabicyclo[3.1.0]hexan-3-yl)quinoline-8-carbonitrile] | > 6.00
N#Cc1ccc(N2C[C@]3(c4nnc(C5CNCC(F)C5)o4)C[C@]3(C(F)(F)F)C2)c2cccnc12 (stereo partly drawn) [Compound 45, 5-((1R,5S)-1-((difluoro-3-methyl)-12-fluoraneyl)-5-(5-(5-fluoropiperidin-3-yl)-1,3,4-oxadiazol-2-yl)-3-azabicyclo[3.1.0]hexan-3-yl)quinoline-8-carbonitrile] | > 7.00
N#Cc1ccc(N2C[C@]3(c4nnc(C5(F)CCNC5)o4)C[C@]3(C(F)(F)F)C2)c2cccnc12 (stereo partly drawn) [Compound 46, 5-((1S,5R)-1-(5-(3-fluoropyrrolidin-3-yl)-1,3,4-oxadiazol-2-yl)-5-(trifluoromethyl)-3-azabicyclo[3.1.0]hexan-3-yl)quinoline-8-carbonitrile] | > 7.00
